Data from BindingDB's records for doi:10.1016/j.bioorg.2016.03.011 (Beni-Suef University, 2016).

Target: Epidermal growth factor receptor (Homo sapiens, UniProt P00533)
Assay: Kinase-Glo Plus Luminescence Kinase Assay
Description: Kinase activity was determined using Kinase-Glo Plus luminescence kinase assay kit according to the manufacturer instructions. The assays depend on the quantitation of the amount of ATP remaining in the solution of kinase reaction.

Epidermal growth factor receptor, sequence (P00533 whole entry): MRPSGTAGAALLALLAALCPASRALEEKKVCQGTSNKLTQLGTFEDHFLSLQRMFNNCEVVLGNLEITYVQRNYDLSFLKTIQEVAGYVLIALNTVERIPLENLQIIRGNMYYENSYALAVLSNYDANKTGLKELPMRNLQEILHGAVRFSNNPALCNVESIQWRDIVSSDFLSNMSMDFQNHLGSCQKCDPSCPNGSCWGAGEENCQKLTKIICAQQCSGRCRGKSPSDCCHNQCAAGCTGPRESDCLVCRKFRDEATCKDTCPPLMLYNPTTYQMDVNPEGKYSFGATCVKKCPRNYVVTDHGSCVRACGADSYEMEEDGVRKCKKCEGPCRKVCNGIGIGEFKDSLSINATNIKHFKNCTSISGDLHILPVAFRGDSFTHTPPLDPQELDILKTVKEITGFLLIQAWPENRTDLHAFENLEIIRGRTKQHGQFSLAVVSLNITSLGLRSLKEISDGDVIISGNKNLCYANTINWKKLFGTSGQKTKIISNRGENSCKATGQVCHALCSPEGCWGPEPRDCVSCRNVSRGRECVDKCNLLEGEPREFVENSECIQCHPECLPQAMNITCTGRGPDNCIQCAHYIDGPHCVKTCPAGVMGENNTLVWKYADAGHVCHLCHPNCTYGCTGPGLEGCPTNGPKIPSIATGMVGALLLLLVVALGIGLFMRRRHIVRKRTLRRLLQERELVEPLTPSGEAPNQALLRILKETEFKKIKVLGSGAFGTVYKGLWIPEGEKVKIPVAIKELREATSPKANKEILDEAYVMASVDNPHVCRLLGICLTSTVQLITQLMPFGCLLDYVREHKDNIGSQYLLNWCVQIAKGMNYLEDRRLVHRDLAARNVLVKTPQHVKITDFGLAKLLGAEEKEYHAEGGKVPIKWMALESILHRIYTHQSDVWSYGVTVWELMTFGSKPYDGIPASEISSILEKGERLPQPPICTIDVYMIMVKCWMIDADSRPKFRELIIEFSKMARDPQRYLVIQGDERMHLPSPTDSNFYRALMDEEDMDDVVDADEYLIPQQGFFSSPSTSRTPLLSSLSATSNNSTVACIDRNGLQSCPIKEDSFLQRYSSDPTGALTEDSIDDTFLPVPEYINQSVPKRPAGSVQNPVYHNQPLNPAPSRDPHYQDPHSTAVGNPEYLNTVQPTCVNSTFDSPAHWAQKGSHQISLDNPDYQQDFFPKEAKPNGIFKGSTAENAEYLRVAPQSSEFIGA

Compound | IC50 [µM]
Cc1cc(OCC(=O)N/N=C/c2ccc(F)cc2)c2c(C)nn(-c3ccccc3)c2n1 [N-(4-fluorobenzylidene)-2-(3,6-dimethyl-1-phenyl-1H-pyrazolo[3,4-d]pyrimidin-4-yloxy)acetohydrazide (12b)] | 30
Cc1cc(OCC(=O)N/N=C/c2ccc(C(F)(F)F)cc2)c2c(C)nn(-c3ccccc3)c2n1 [N-(4-Trifluoromethylbenzylidene)-2-(3,6-dimethyl-1-phenyl-1H-pyrazolo[3,4-d]pyrimidin-4-yloxy)acetohydrazide (12f)] | 35.9
